Measured values as given in patent publication US10435405B2, “Pyrazolopyridine compounds and uses thereof” (Incyte Corporation, priority 2016, dated 2019).

Molecular target: HPK1 (Homo sapiens (Human), UniProt Q92918)
Assay: HPK1 Kinase Binding Assay
Description: A stock solution of 1 mM test compound was prepared in DMSO. The compound plate was prepared by 3-fold and 11-point serial dilutions. 0.1 μL of the compound in DMSO was transferred from the compound plate to the white 384 well polystyrene plates. The assay buffer contained 50 mM HEPES, pH 7.5, 0.01% Tween-20, 5 mM MgCl2, 0.01% BSA, and 5 mM DTT. 5 μl of 4 nM active HPK1 (SignalChem M23-11G) prepared in the buffer was added to the plate. The enzyme concentration given was based on the given stock concentration reported by the vender. 5 μl of 18 nM tracer 222 (ThermoFisher PV6121) and 4 nM LanthaScreen Eu-Anti GST antibody (ThermoFisher PV5595) were added. After one hour incubation at 25° C., the plates were read on a PHERAstar FS plate reader (BMG Labtech). Ki values were determined.

HPK1, sequence (Q92918 1-346): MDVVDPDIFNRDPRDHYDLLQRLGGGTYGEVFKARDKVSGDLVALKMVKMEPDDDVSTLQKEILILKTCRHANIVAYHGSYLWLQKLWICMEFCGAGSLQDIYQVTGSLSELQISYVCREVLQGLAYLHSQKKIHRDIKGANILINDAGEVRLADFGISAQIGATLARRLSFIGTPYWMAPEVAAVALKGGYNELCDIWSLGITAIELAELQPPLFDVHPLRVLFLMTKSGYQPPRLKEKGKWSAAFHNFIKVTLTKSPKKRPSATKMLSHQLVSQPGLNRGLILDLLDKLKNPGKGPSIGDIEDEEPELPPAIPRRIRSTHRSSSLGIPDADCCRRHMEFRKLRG

SMILES	Ki [nM]
CN1CCN(c2ccc(C(=O)Nc3n[nH]c4cnc(-c5c(F)cc(CN6CCC6)cc5F)cc34)cc2)CC1 [Example 142, N-(5-(4-(Azetidin-1-ylmethyl)-2,6-difluorophenyl)-1H-pyrazolo[3,4-c]pyridin-3-yl)-4-(4-methylpiperazin-1-yl)benzamide]	≤ 100
CNCc1cc(F)c(-c2cc3c(-c4cnn(C)c4)n[nH]c3cn2)c(C(F)(F)F)c1 [Example 131, 1-(3-Fluoro-4-(3-(1-methyl-1H-pyrazol-4-yl)-1H-pyrazolo[3,4-c]pyridin-5-yl)-5-(trifluoromethyl)phenyl)-N-methylmethanamine]	≤ 100
COc1cccc(F)c1-c1cc2c(-c3cc(C)no3)n[nH]c2cn1 [Example 35, 5-(5-(2-Fluoro-6-methoxyphenyl)-1H-pyrazolo[3,4-c]pyridin-3-yl)-3-methylisoxazole]	≤ 100
COc1cccc(F)c1-c1cc2c(NC(=O)c3ccc(F)c(F)c3)n[nH]c2cn1 [Example 12, 3,4-Difluoro-N-(5-(2-fluoro-6-methoxyphenyl)-1H-pyrazolo[3,4-c]pyridin-3-yl)benzamide]	≤ 100
CC(C(=O)Nc1cc(F)c(-c2cc3c(-c4cnn(C)c4)n[nH]c3cn2)c(F)c1)N1CCCC1 (centres unmarked) [Example 70, N-(3,5-Difluoro-4-(3-(1-methyl-1H-pyrazol-4-yl)-1H-pyrazolo[3,4-c]pyridin-5-yl)phenyl)-2-(pyrrolidin-1-yl)propanamide]	≤ 100
COc1cccc(F)c1-c1cc2c(NCc3ccc(N4CCN(C)CC4)cc3)n[nH]c2cn1 [Example 41, 5-(2-Fluoro-6-methoxyphenyl)-N-(4-(4-methylpiperazin-1-yl)benzyl)-1H-pyrazolo[3,4-c]pyridin-3-amine]	500 to 2000
COc1cccc(Cl)c1-c1cc2c(-c3ccc(N4CCN(C)CC4)cc3)n[nH]c2cn1 [Example 52, 5-(2-Chloro-6-methoxyphenyl)-3-(4-(4-methylpiperazin-1-yl)phenyl)-1H-pyrazolo[3,4-c]pyridine]	≤ 100
Cc1cccc(F)c1-c1cc2c(-c3ccc(N4CCN(C)CC4)cc3)n[nH]c2cn1 [Example 49, 5-(2-Fluoro-6-methylphenyl)-3-(4-(4-methylpiperazin-1-yl)phenyl)-1H-pyrazolo[3,4-c]pyridine]	≤ 100
Cn1cc(-c2n[nH]c3cnc(-c4c(F)cc(OC5CCOCC5)cc4F)cc23)cn1 [Example 107, 5-(2,6-Difluoro-4-(tetrahydro-2H-pyran-4-yloxy)phenyl)-3-(1-methyl-1H-pyrazol-4-yl)-1H-pyrazolo[3,4-c]pyridine]	≤ 100
CC(C)NCc1ccc(F)c(-c2cc3c(-c4cnn(C)c4)n[nH]c3cn2)c1F [Example 128, N-(2,4-Difluoro-3-(3-(1-methyl-1H-pyrazol-4-yl)-1H-pyrazolo[3,4-c]pyridin-5-yl)benzyl)propan-2-amine]	≤ 100
COc1cccc(F)c1-c1cc2c(N3CCN(c4ccc(Br)cc4)C(=O)C3)n[nH]c2cn1 [Example 37, 1-(4-Bromophenyl)-4-(5-(2-fluoro-6-methoxyphenyl)-1H-pyrazolo[3,4-c]pyridin-3-yl)piperazin-2-one]	≤ 100
Cn1cc(-c2n[nH]c3cnc(-c4c(F)cc(NC(=O)CC5CCCC5)cc4F)cc23)cn1 [Example 66, 2-Cyclopentyl-N-(3,5-difluoro-4-(3-(1-methyl-1H-pyrazol-4-yl)-1H-pyrazolo[3,4-c]pyridin-5-yl)phenyl)acetamide]	≤ 100
CCN1CCN(c2cccc(C(=O)Nc3n[nH]c4cnc(-c5c(F)cccc5OC)cc34)c2)CC1 [Example 20, 3-(4-Ethylpiperazin-1-yl)-N-(5-(2-fluoro-6-methoxyphenyl)-1H-pyrazolo[3,4-c]pyridin-3-yl)benzamide]	≤ 100
Cn1cc(-c2n[nH]c3cnc(-c4c(F)cc(NC(=O)CN5CCCC5)cc4F)cc23)cn1 [Example 64, N-(3,5-Difluoro-4-(3-(1-methyl-1H-pyrazol-4-yl)-1H-pyrazolo[3,4-c]pyridin-5-yl)phenyl)-2-(pyrrolidin-1-yl)acetamide]	≤ 100
CC(C)NC1CC(c2cc(F)c(-c3cc4c(-c5cnn(C)c5)n[nH]c4cn3)c(F)c2)C1 (centres unmarked) [Example 95, 3-(3,5-Difluoro-4-(3-(1-methyl-1H-pyrazol-4-yl)-1H-pyrazolo[3,4-c]pyridin-5-yl)phenyl)-N-isopropylcyclobutanamine]	≤ 100
COc1cccc(F)c1-c1cc2c(C(=O)Nc3ccc(N4CCN(C)CC4)cc3)n[nH]c2cn1 [Example 54, 5-(2-Fluoro-6-methoxyphenyl)-N-(4-(4-methylpiperazin-1-yl)phenyl)-1H-pyrazolo[3,4-c]pyridine-3-carboxamide]	≤ 100
CCNCc1ccc(F)c(-c2cc3c(-c4cnn(C)c4)n[nH]c3cn2)c1OC [Example 139, N-(4-Fluoro-2-methoxy-3-(3-(1-methyl-1H-pyrazol-4-yl)-1H-pyrazolo[3,4-c]pyridin-5-yl)benzyl)ethanamine]	≤ 100
COc1cccc(F)c1-c1cc2c(NC(=O)c3ccc(N4CCN(S(C)(=O)=O)CC4)cc3)n[nH]c2cn1 [Example 32, N-(5-(2-Fluoro-6-methoxyphenyl)-1H-pyrazolo[3,4-c]pyridin-3-yl)-4-(4-(methylsulfonyl)piperazin-1-yl)benzamide]	≤ 100
CNCc1ccc(F)c(-c2cc3c(-c4cnn(C)c4)n[nH]c3cn2)c1OC [Example 138, 1-(4-Fluoro-2-methoxy-3-(3-(1-methyl-1H-pyrazol-4-yl)-1H-pyrazolo[3,4-c]pyridin-5-yl)phenyl)-N-methylmethanamine]	≤ 100
COc1cccc(F)c1-c1cc2c(NC(=O)c3ccc(N4CCN(CC(F)(F)F)C(=O)C4)cc3)n[nH]c2cn1 [Example 29, N-(5-(2-Fluoro-6-methoxyphenyl)-1H-pyrazolo[3,4-c]pyridin-3-yl)-4-(3-oxo-4-(2,2,2-trifluoroethyl)piperazin-1-yl)benzamide]	≤ 100

Other lines, results leading:

Ki [nM]	SMILES
≤ 100	CC(C)NCc1cc(F)c(-c2cc3c(C(=O)Nc4ccc(N5CCN(C)CC5)cc4)n[nH]c3cn2)c(F)c1 [Example 155, 5-(2,6-Difluoro-4-((isopropylamino)methyl)phenyl)-N-(4-(4-methylpiperazin-1-yl)phenyl)-1H-pyrazolo[3,4-c]pyridine-3-carboxamide]
≤ 100	CNC(=O)c1ccc(-c2n[nH]c3cnc(-c4c(F)ccc5c4CCCC5NC)cc23)cn1 (centres unmarked) [Example 208, 5-(5-(2-Fluoro-5-(methylamino)-5,6,7,8-tetrahydronaphthalen-1-yl)-1H-pyrazolo[3,4-c]pyridin-3-yl)-N-methylpicolinamide]
≤ 100	CNCc1cc(C)c(-c2cc3c(-c4cnn(C)c4)n[nH]c3cn2)c(F)c1 [Example 168, 1-(3-Fluoro-5-methyl-4-(3-(1-methyl-1H-pyrazol-4-yl)-1H-pyrazolo[3,4-c]pyridin-5-yl)phenyl)-N-methylmethanamine]
≤ 100	CNC(=O)c1ccc(-c2n[nH]c3cnc(-c4c(C)cc(C5CCCN5)cc4F)cc23)cc1 (centres unmarked) [Example 170, 4-(5-(2-Fluoro-6-methyl-4-(pyrrolidin-2-yl)phenyl)-1H-pyrazolo[3,4-c]pyridin-3-yl)-N-methylbenzamide]
≤ 100	CN1CCN(c2ncc(-c3n[nH]c4cnc(-c5c(F)cc(CC#N)cc5F)cc34)cn2)CC1 [Example 211, 2-(3,5-Difluoro-4-(3-(2-(4-methylpiperazin-1-yl)pyrimidin-5-yl)-1H-pyrazolo[3,4-c]pyridin-5-yl)phenyl)acetonitrile]
≤ 100	Cc1cc(C2CCCN2C)cc(F)c1-c1cc2c(-c3cnn(C)c3)n[nH]c2cn1 (centres unmarked) [Example 173, 5-(2-Fluoro-6-methyl-4-(1-methylpyrrolidin-2-yl)phenyl)-3-(1-methyl-1H-pyrazol-4-yl)-1H-pyrazolo[3,4-c]pyridine]
≤ 100	CNC1CCc2c1cc(F)c(-c1cc3c(-c4ccc(N5CCN(C)CC5)cc4)n[nH]c3cn1)c2F (centres unmarked) [Example 197, 4,6-Difluoro-N-methyl-5-(3-(4-(4-methylpiperazin-1-yl)phenyl)-1H-pyrazolo[3,4-c]pyridin-5-yl)-2,3-dihydro-1H-inden-1-amine]
≤ 100	COC(=O)NCc1cc(C)c(-c2cc3c(-c4cnn(C)c4)n[nH]c3cn2)c(F)c1 [Example 192, Methyl 3-fluoro-5-methyl-4-(3-(1-methyl-1H-pyrazol-4-yl)-1H-pyrazolo[3,4-c]pyridin-5-yl)benzylcarbamate]
≤ 100	CNC1CCCc2c1ccc(F)c2-c1cc2c(-c3ccc(N4CCN(C)CC4)cc3)n[nH]c2cn1 (centres unmarked) [Example 209, 6-Fluoro-N-methyl-5-(3-(4-(4-methylpiperazin-1-yl)phenyl)-1H-pyrazolo[3,4-c]pyridin-5-yl)-1,2,3,4-tetrahydronaphthalen-1-amine]
≤ 100	CCNCc1cc(C)c(-c2cc3c(-c4cnn(C)c4)n[nH]c3cn2)c(F)c1 [Example 176, N-(3-Fluoro-5-methyl-4-(3-(1-methyl-1H-pyrazol-4-yl)-1H-pyrazolo[3,4-c]pyridin-5-yl)benzyl)ethanamine]
≤ 100	CNCc1cc(F)c(-c2cc3c(-c4cnn(C5CNC5)c4)n[nH]c3cn2)c(F)c1 [Example 162, 1-(4-(3-(1-(Azetidin-3-yl)-1H-pyrazol-4-yl)-1H-pyrazolo[3,4-c]pyridin-5-yl)-3,5-difluorophenyl)-N-methylmethanamine]
≤ 100	Cc1cc(C2CCCCN2)cc(F)c1-c1cc2c(-c3cnn(C4CC4)c3)n[nH]c2cn1 (single isomer, unassigned) [Example 232, 3-(1-Cyclopropyl-1H-pyrazol-4-yl)-5-(2-fluoro-6-methyl-4-(piperidin-2-yl)phenyl)-1H-pyrazolo[3,4-c]pyridine]
